Experimental data as given in patent publication EP0146443A1, “(-)-1-(2-Fluorophenyl)-2-tertiobutylamino-1-ethanol and therapeutical use” (LABORATOIRE L. LAFON Société anonyme dite:, priority 1983, dated 1985).

What was measured:
Assay type in all cases: in vivo
[1] = system: souris; assay: Spontaneous motility (actimeter); conditions: recorded for 0,5 h, 0.5 h after dosing
Description: (§1) Dans ces essais les produits à tester en solution dans de l'eau distillée (pH5) ont été administrés, par voie intrapéritonéale, sous un volume de 20 ml/kg chez la souris mâle, et, sous un volume de 5 ml/kg chez le rat mâle.
Une demi-heure après avoir reçu les produits à tester, les souris (6 par dose, 12 témoins) sont placées en actimètre où leur motilité est enregistrée pendant 0,5 h.

[2] = system: souris; assay: Acute toxicity, intraperitoneal, mouse; conditions: I.P.
Description: as §1
Le CRL 40 996 est moins toxique que les CRL 40 995 et CRL 40 827. En effet si la DL-0 (dose maximale non mortelle) des trois substances est supérieure ou égale à 64 mg/kg (I.P.; souris), la DL-60 du CRL 40 996 est de l'ordre de 128 mg/kg (I.P.; souris)et la DL-100 des CRL 40 995 et CRL 40 827 est inférieure ou égale à 128 mg/kg (I.P.; souris).

[3] = system: souris; assay: Interaction with oxotremorine; conditions: for effet hypothermisant de l'oxotrémorine / tremblements provoqués par l'oxotrémorine: 0.5 h before oxotremorine 0,5 mg/kg i.p.
Description: as §1
Chaque produit à tester est administré à des lots de 6 souris une demi-heure avant l'injection intrapéritonéale de 0,5 mg/kg d'oxotrémorine.

[4] = system: rat; assay: Global behaviour and reactivities, rat
Description: as §1
(§2) Des lots de 6 animaux sont observés avant, puis 0,25 h, 0,50 h, 1 h, 2 h, 3 h, et 24 h après administration des produits à étudier.

[5] = system: souris; assay: Interaction with apomorphine; conditions: 0.5 h before apomorphine 16 mg/kg s.c.
Description: as §1
Des lots de 6 souris reçoivent chaque produit à tester une demi-heure avant l'injection sous-cutanée de 16 mg/kg d'apomorphine.

[6] = system: souris; assay: Global behaviour and reactivities, mouse; conditions: for comportement et réactivités: doses of 2 and 0,5 mg/kg i.p.
Description: as §1, §2

[7] = system: souris; assay: Behavioural despair (immobility in water); conditions: 0.5 h before immersion
Description: as §1
Une demi-heure après avoir reçu les produits à tester, des lots de 6 souris sont placés dans un bécher rempli d'eau sur une hauteur de 6 cm. On note la durée totale d'immobilité entre la 2ème et la 6ème minutes suivant l'immersion.

[8] = system: souris; assay: Interaction with reserpine
Description: as §1
Quatre heures après l'injection intrapéritonéale de 2,5 mg/kg de réserpine, des lots de 6 souris reçoivent chaque produit à tester.

[9] = system: homme; assay: Clinical use in depressive states; conditions: oral route, human
Description: La posologie préconisée consiste à administrer par jour 3 comprimés ou gélules renfermant chacun 3 à 4 mg de CRL 40 996.

[10] = peripheral cholinergic symptoms after oxotremorine 0,5 mg/kg i.p.
[11] = 32 mg/kg i.p., 4 h after reserpine 2,5 mg/kg i.p.
[12] = doses of 0,5, 2 and 8 mg/kg i.p., 4 h after reserpine 2,5 mg/kg i.p.
[13] = from the dose of 0,5 mg/kg i.p.
[14] = from the dose of 0.5 mg/kg i.p.

Question: Which results are given for `CC(C)(C)NCC(O)c1ccccc1F` (racemic) [CRL 40 827, chlorhydratede ( + )-1-(2-fluorophényl)-2-tertiobutylamino-1-éthanol]?
Answer: activité motrice spontanée ([1]; 8 mg/kg i.p.): ne modifie pas; activité motrice spontanée ([1]; 32 mg/kg i.p.): semble la diminuer modérément mais pas significativement; DL-0 (dose maximale non mortelle) [2]: ≥ 64 mg/kg; DL-100 [2]: ≤ 128 mg/kg; effet hypothermisant de l'oxotrémorine ([3]; i.p., dose not stated): an- tagonisé; tremblements provoqués par l'oxotrémorine ([3]; i.p., dose not stated): ne sont pas modifiés; signes de stimulation cholinergique [3, 10]: laissent inchangés

Question: `CC(C)(C)NCC(O)c1ccccc1F` (single isomer, unassigned) [CRL 40 995, chlorhydratede (+)-1-(2-fluorophényl)-2-tertio-butylamino-1-éthanol] was tested. Which “activité motrice spontanée” value ([1]; doses of 8 and 32 mg/kg i.p.) did it give?
Answer: diminue modérément

Question: And the “DL-0 (dose maximale non mortelle)” value [2]?
Answer: ≥ 64 mg/kg

Question: And the DL-100 [2]?
Answer: ≤ 128 mg/kg

Question: And the “comportement et réactivités” value ([4]; doses of 16, 4, 1 and 0,5 mg/kg i.p.)?
Answer: sans modifications sensibles par rapport aux animaux témoins

Question: What about the “action hypothermisante de l'apomorphine” value ([5]; doses of 8 and 32 mg/kg i.p.) of the same compound?
Answer: s'oppose

Question: And the “comportement de verticalisation et stéréotypies” value ([5]; doses of 8 and 32 mg/kg i.p.)?
Answer: sans modifier

Question: What about the “tremblements provoqués par l'oxotrémorine” value ([3]; 32 mg/kg i.p., worded as 'seems') of the same compound?
Answer: potentialiser

Question: And the “effet hypothermisant de l'oxotrémorine” value ([3]; i.p., dose not stated)?
Answer: n'est pas modifié

Question: What about the “signes de stimulation cholinergique” value [3, 10] of the same compound?
Answer: laissent inchangés

Question: And the “comportement et réactivités” value [6]?
Answer: sans modifications sensibles par rapport aux animaux témoins

Question: And the “respiration déprimée (duration)” value ([6]; doses of 32 and 8 mg/kg i.p.)?
Answer: 0,5 h

Question: And the “durée de l'immobilité dite du "désespoir comportemental"” value ([7]; i.p., dose not stated)?
Answer: ne modifie pas

Question: And the “antagonisme de l'hypothermie réserpinique (animals showing it)” value [8, 11]?
Answer: 5 souris sur 6

Question: What about the “perte du réflexe de redressement (et l'hypothermie qui en résulte)” value [8, 11] of the same compound?
Answer: 1 souris sur 6

Question: And the “hypothermie réserpinique” value [8, 12]?
Answer: s'oppose modérément

Question: And the ptôsis [8, 12]?
Answer: sans modifier

Question: Which results are given for `CC(C)(C)NCC(O)c1ccccc1F` (single isomer, unassigned) [CRL 40 996, chlorhydratede (-)-1-(2-fluorophényl)-2-tertio-butylamino-1-éthanol]?
Answer: activité motrice spontanée ([1]; doses of 8 and 32 mg/kg i.p.): diminution très importante; effet antidépresseur dans le traitement des états dépressifs [9]: bon agent antidépresseur; DL-0 (dose maximale non mortelle) [2]: ≥ 64 mg/kg; DL-60 [2]: ~128 mg/kg; sédation fugace (duration) ([4]; 4 mg/kg i.p.): 0,25 h; dyspnée (duration) ([4]; 16 mg/kg i.p.): 1 h; sédation (duration) ([4]; 16 mg/kg i.p.): 0,5 h; comportement et réactivités ([4]; doses of 1 and 0,25 mg/kg i.p.): sans modifications sensibles par rapport aux animaux témoins; comportement de verticalisation et stéréotypies [5, 13]: sans modifier; hypothermie induite par l'apomorphine [5, 13]: antagonisme net; effet hypothermisant de l'oxotrémorine ([3]; i.p., dose not stated): an- tagonisé; tremblements provoqués par l'oxotrémorine ([3]; i.p., dose not stated): ne sont pas modifiés; défécation [3, 10]: semble diminuer; salivation et lacrymation [3, 10]: sans modifier; diminution de la réactivité au toucher et du tonus musculaire (duration) ([6]; 8 mg/kg i.p.): 0,25 h; hypothermie ([6]; 8 mg/kg i.p.): -1,8 °C; hypothermie (duration) ([6]; 8 mg/kg i.p.): 0,25 h; sédation (duration) ([6]; 8 mg/kg i.p.): 0,5 h; diminution de la réactivité au toucher et du tonus musculaire (duration) ([6]; 32 mg/kg i.p.): 0,25 h; disparition du "pinna reflex" (duration) ([6]; 32 mg/kg i.p.): 0,5 h; hypothermie ([6]; 32 mg/kg i.p.): -2,0 °C; sédation (duration) ([6]; 32 mg/kg i.p.): 0,5 h; comportement et réactivités [6]: sans modifications sensibles par rapport aux animaux témoins; durée d'immobilité ([7]; doses of 8 and 32 mg/kg i.p.): diminue modérément; latence de l'effet sur l'hypothermie réserpinique [8, 14]: ~1 heure; ptôsis [8, 14]: sans modifier; hypothermie réserpinique ([8]; from the dose of 0.5 mg/kg i.p., effect does not clearly increase with dose): combat modérément
